Data: paper PMC3745430, “Novel Multiplexed Assay for Identifying SH2 Domain Antagonists of STAT Family Proteins” (PLoS ONE, 2013)
Like-named read-outs stand apart in the source and are kept apart here. Square brackets hold non-standard residues; d marks the D form. Primed or numbered codes have the meaning given here. Ends that are not written are not given here. pY = N[C@@H](Cc1ccc(OP(=O)(O)O)cc1)C(=O)O; FITC′ = 5-carboxyfluorescein label; DIG = digoxygenin label; C2 = two carbon spacer; C6 = C6 spacer

Experiments:
STAT3(136–705) [1] = target: T1, STAT3(136–705) (Homo sapiens, UniProt P40763); experiment: Multiplexed Alpha assay, STAT3-SH2 binding (AlphaLISA)
T1 construct: amino acids 136 to 705 of human STAT3 and 136 to 703 of human STAT5b; 6×His-tag (N); made in house; host or cells: E. coli BL-21 Star (DE3) pLysS co-transformed with pBirAcm
T1 sequence (P40763 136-705): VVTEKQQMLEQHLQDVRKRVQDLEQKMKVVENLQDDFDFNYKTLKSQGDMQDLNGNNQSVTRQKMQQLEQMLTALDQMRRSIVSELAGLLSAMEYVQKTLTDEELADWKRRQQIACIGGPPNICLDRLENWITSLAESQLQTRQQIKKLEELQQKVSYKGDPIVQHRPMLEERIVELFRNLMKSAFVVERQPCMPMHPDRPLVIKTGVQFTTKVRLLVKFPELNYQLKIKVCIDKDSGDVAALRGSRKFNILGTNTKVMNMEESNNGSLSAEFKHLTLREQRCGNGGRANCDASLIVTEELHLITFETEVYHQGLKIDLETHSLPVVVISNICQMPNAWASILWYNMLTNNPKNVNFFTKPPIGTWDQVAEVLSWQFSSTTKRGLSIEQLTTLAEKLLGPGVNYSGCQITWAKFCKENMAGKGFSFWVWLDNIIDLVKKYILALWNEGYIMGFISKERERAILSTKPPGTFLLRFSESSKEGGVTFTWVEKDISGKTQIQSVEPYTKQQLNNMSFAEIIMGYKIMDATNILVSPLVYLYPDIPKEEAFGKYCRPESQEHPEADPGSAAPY
Protocol: (§1) Both AlphaLISA and AlphaScreen are bead-based nonradioactive binding assay systems for detecting biomolecular interactions in a microplate format. The binding of the biological partners brings the donor and acceptor beads into close proximity, and AlphaLISA produces a specific signal around 615 nm and AlphaScreen emits a broad signal between 520 and 620 nm. The assays were performed in a final reaction volume of 25 µL of the assay buffer, which contained 10 mM HEPES-NaOH (pH 7.4), 50 mM NaCl, 1 mM EDTA (pH 8.0), 0.1% (w/v) NP-40, and 10 ng/µL (w/v) BSA in a 96-well microplate at 25°C. The labeled phosphotyrosyl (pTyr, pY) peptide probes were DIG-GpYLPQTV and FITC-GpYLVLDKW for STAT3 and STAT5b, respectively. In the single assay for STAT3 binding, 100 nM STAT3(136–705) protein was incubated with a test compound dissolved in DMSO for 30 min, and 1.0 nM DIG-GpYLPQTV was added and the mixture was incubated for 90 min. Streptavidin-coated donor beads (0.25 µg/well) and anti-DIG AlphaLISA acceptor beads (0.25 µg/well) were added and incubated for 90 min before the signals were measured with EnVison Xcite (PerkinElmer Life Sciences). In the single assay for STAT5b binding, 20 nM STAT5b(136–703) was incubated with a test compound for 30 min, and 1.0 nM FITC-GpYLVLDKW was added and incubated for 90 min. Streptavidin-coated donor beads (0.25 µg/well) and anti-FITC AlphaScreen acceptor beads (0.25 µg/well) were added and incubated for 90 min before the signals were measured with EnVison Xcite. In the multiplexed assay, 100 nM STAT3(136–705) and 20 nM STAT5b(136–703) were incubated with a test compound for 30 min, and 1.0 nM DIG-GpYLPQTV and 1.0 nM FITC-GpYLVLDKW were added and incubated for 90 min. Streptavidin-coated donor beads (0.50 µg/well), anti-DIG AlphaLISA (0.25 µg/well), and anti-FITC AlphaScreen acceptor beads (0.25 µg/well) were added and incubated for 90 min before the signals were measured with EnVison Xcite. AlphaLISA and AlphaScreen signals for measuring STAT3- and STAT5b-SH2 binding, respectively, can be separately measured by using a dysprosium 572 nm and a europium 615 nm narrow bandwidth filter. In inhibitory assays, these signals for the bound state and the free state were represented as 0% and 100% inhibition, respectively. The bound state was measured by incubating the labeled peptide and the protein without test compounds. The free state was measured by incubating the same mixture with an additional 10 µM non-labeled peptide contained phosphorylated tyrosine, which competitively binds to its corresponding protein. The IC50 value was calculated by Graph pad prism 4.0. The mean and the standard error (SEM) of IC50 values were determined from three independent experiments. The Z’ value was calculated using the equation Z’ = 1–(3×SD_bound +3×SD_free)/(Signal_bound – Signal_free). STAT1 and Grb2 binding assays were performed as described in previous report. In the assays for selectivity of Compound 1, 100 pM biotinylated DIG or 100 pM biotinylated FITC was incubated with 10 µM or 30 µM Compound 1 for 30 min. Streptavidin-coated donor beads (0.25 µg/well) and anti-DIG AlphaLISA acceptor beads (0.25 µg/well) or anti-FITC AlphaScreen acceptor beads (0.25 µg/well) were added and incubated for 90 min before the signals were measured with EnVison Xcite.

STAT5b(136–703) [2] = target: T2, STAT5b(136–703) (Homo sapiens, UniProt P51692); experiment: Multiplexed Alpha assay, STAT5b-SH2 binding (AlphaScreen)
T2 construct: 136 to 703 of human STAT5b; 6×His-tag (N); made in house; host or cells: E. coli BL-21 Star (DE3) pLysS co-transformed with pBirAcm
T2 sequence (P51692 136-703): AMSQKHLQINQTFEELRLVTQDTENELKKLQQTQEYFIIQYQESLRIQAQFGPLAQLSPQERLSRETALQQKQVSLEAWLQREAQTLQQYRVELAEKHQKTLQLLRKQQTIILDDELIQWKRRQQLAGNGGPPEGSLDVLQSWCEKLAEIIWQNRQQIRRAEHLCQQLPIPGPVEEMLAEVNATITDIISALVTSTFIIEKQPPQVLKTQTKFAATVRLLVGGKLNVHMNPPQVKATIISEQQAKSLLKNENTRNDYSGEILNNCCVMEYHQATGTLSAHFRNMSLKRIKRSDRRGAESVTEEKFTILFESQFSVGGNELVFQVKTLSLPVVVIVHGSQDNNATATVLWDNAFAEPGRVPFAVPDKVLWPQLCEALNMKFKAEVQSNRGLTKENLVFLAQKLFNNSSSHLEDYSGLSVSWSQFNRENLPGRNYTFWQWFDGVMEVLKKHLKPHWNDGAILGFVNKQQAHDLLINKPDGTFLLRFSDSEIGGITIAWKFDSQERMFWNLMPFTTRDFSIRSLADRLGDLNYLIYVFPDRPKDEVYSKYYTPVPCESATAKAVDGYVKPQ
Protocol: as §1

[3] = system: STAT3 nuclear translocation in HeLa cells; experiment: STAT3 nuclear translocation assay in oncostatin M-stimulated HeLa cells; format: cell-based
Protocol: The Cellomics STAT3 Activation Kit (Thermo Scientific) was used for the nuclear translocation assay. HeLa cells were incubated in a 96-well microplate for 24 h. Cells were pretreated with the test compounds for 1 hour, and 30 ng/mL (w/v) of oncostatin M was applied and the mixture was incubated for 10 min. The subsequent procedures were performed according to the manufacturer’s instructions. The cells were scanned with an ArrayScan VTI reader (Thermo Scientific), and analyzed with the Cytoplasm to Nucleus Translocation Application. The mean fluorescent values in the nuclei were calculated. The signals for vehicle treatment and no treatment (without oncostatin M) were represented as 100% and 0%, respectively, and the relative signal intensity was also calculated.

JAK2 = system: JAK2; parameters: method as in PMID 11934592; settings: in vitro assay; cited from earlier work
JAK3 = system: JAK3; parameters: method as in PMID 11934592; settings: in vitro assay; cited from earlier work
TYK2 = system: TYK2; parameters: method as in PMID 11934592; settings: in vitro assay; cited from earlier work
STAT3(136–705) [4] = target: T1, STAT3(136–705); experiment: Single STAT3-SH2 binding assay (AlphaLISA); settings: single assay, non-labeled peptides (Figure 4A)
Protocol: as §1

STAT5b(136–703) [5] = target: T2, STAT5b(136–703); experiment: Single STAT5b-SH2 binding assay (AlphaScreen); settings: single assay, non-labeled peptides (Figure 4B)
Protocol: as §1

STAT3(136–705) [6] = target: T1, STAT3(136–705); experiment: AlphaScreen competition of FITC-C6-GpYLPQTV binding to STAT3(136–705); settings: AlphaScreen system, competitor (Figure S2)
Protocol: To acquire the signal window, the length of the spacer between DIG and the peptide sequence in the DIG-labeled GpYLPQTV peptide was investigated by using the single STAT3-SH2 binding assay. A six carbon (C6) and a two carbon (C2) peptide spacer were used (Figure 3A). […] The DIG-C6-GpYLPQTV peptide was chosen as the STAT3 ligand. When 100 nM STAT3(136–705) was used as the biotinylated protein, 2.0 nM DIG-C6-GpYLPQTV produced the maximum signal for the STAT3-SH2 binding (Figure 3B, Figure S1). For the STAT5b-SH2 binding, FITC-C6-GpYLVLDKW was used as the STAT5b ligand. The signals increased in a peptide dose-dependent manner (Figure S1). When 20 nM STAT5b(136–703) was used, 2.5 nM FITC-C6-GpYLVLDKW produced the maximum signal for STAT5b-SH2 binding. […] Therefore, although DIG-C2-GpYLPQTV could bind to STAT3, it was not suitable for the Alpha system. The anti-DIG antibody may access the DIG-C6-GpYLPQTV peptide-STAT3 protein complex in preference to the DIG-C2-GpYLPQTV peptide complex because of the length of the spacer.
Supplementary file pone.0071646.s002.tif: Figure S2 Inhibition of STAT3-SH2 binding by DIG-C2-GpYLPQTV. DIG-C2-GpYLPQTV was used as a competitor in the binding assay for STAT3(136–705) protein and FITC-C6-GpYLPQTV peptide in the single assay. Each point is the mean from three replicates, and the error bars represent the standard deviation from the mean. […]

STAT5b(136–703) [7] = target: T3, STAT5b(136–703) (human, UniProt P51692 136-703, biotin on the Avi-tag); experiment: AlphaScreen or HTRF; AlphaScreen, single STAT5b-SH2 assay, competition: 20 nM biotinylated STAT5b(136-703) incubated with non-labelled peptide, then 1.0 nM FITC-GpYLVLDKW for 90 min; streptavidin donor and anti-FITC acceptor beads; 10 mM HEPES-NaOH pH 7.4, 50 mM NaCl, 1 mM EDTA, 0.1% NP-40, BSA, 25°C; settings: both partners purified
T3 construct: also called biotinylated STAT5b protein; truncated form of STAT5b; source: E. coli BL-21 Star (DE3) pLysS with pBirAcm (biotinylated in the cells), purified (HisTrap HP, dialysis); not shown: Avi-tag, N-terminal, kept
T3 sequence (looked up): T2 sequence (P51692 136-703)

[8] = multiplexed binding assay, mean and SEM, three independent experiments, read-out: IC50 STAT3-SH2 binding (STAT3)
[9] = multiplexed binding assay, mean and SEM, three independent experiments, read-out: IC50 STAT5b-SH2 binding (STAT5b)
[10] = multiplexed assay, read-out: IC50 for STAT3-SH2 binding
[11] = multiplexed assay, read-out: IC50 for STAT5b-SH2 binding

CCOc1ccccc1NC1=C(Cl)C(=O)c2ccccc2C1=O [Compound 2]
Increase in inhibitory activity against STAT3 in comparison with Compound 1 (STAT3(136–705) [1]; multiplexed assay): approximately 3 fold
IC50 (STAT3(136–705) [1]; [8]): 1.5 ± 0.052 µM
Increase in inhibitory activity against STAT5b in comparison with Compound 1 (STAT5b(136–703) [2]; multiplexed assay): ~8 fold
IC50 (STAT5b(136–703) [2]; [9]): 1.4 ± 0.019 µM

CC(=O)NC1=C(Cl)C(=O)c2ccccc2C1=O [Compound 4]
IC50 (STAT3(136–705) [1]; [8]): 23 ± 0.68 µM
IC50 (STAT5b(136–703) [2]; [9]): > 30 µM

O=C1C(Cl)=C(Cl)C(=O)c2ccccc21 [Compound 5]
IC50 (STAT3(136–705) [1]; [8]): 12 ± 0.59 µM
IC50 (STAT5b(136–703) [2]; [9]): 20 ± 0.33 µM

O=C1C(Cl)=C(N2CCOCC2)C(=O)c2ccc(S(=O)(=O)N3CCOCC3)cc21 [Compound 6]
IC50 (STAT3(136–705) [1]; [8]): 3.8 ± 0.064 µM
IC50 (STAT5b(136–703) [2]; [9]): 13 ± 0.38 µM

CN1CCN(C2=C(Cl)C(=O)c3ccccc3C2=O)CC1 [Compound 7]
IC50 (STAT3(136–705) [1]; [8]): > 30 µM
IC50 (STAT5b(136–703) [2]; [9]): > 30 µM
Effect on STAT3 nuclear translocation ([3]; HeLa cells, pretreatment before oncostatin M (Figure 6, Figure S9)): did not inhibit

CC(C)(C)c1nc2c3cc[nH]c(=O)c3c3cc(F)ccc3c2[nH]1 [JAK inhibitor 1]
Fluorescent intensity of STAT3 in the nuclei, of the vehicle treatment ([3]; 1 µM, positive control, HeLa): 61%

O=C(NN=Cc1coc2ccccc2c1=O)c1cccnc1 [STAT5 inhibitor, N′-((4-Oxo-4H-chromen-3-yl)methylene)nicotinohydrazide, reference compound]
IC50 (STAT3(136–705) [1]; [10]): 161 µM
IC50 (STAT5b(136–703) [2]; [11]): 2.8 µM

O=[N+]([O-])c1ccc2c(c1)S(=O)(=O)C=C2 [Stattic, reference compound]
IC50 (STAT3(136–705) [1]; [10]): 50 µM
IC50 (STAT5b(136–703) [2]; [11]): 175 µM

Ac-GYLPQTV-NH2
Inhibitory effect on STAT3-SH2 binding (STAT3(136–705) [4]): had no effect
Inhibitory effect on STAT5b-SH2 binding (STAT5b(136–703) [5]): had no effect

Ac-GYLVLDKW-NH2
Inhibitory effect on STAT3-SH2 binding (STAT3(136–705) [4]): had no effect
Inhibitory effect on STAT5b-SH2 binding (STAT5b(136–703) [5]): had no effect

Ac-GpYLPQTV-NH2 (Ac-G[pY]LPQTV-NH2) [non-labeled phosphotyrosine peptide for STAT3]
Inhibitory effect on STAT3-SH2 binding (STAT3(136–705) [4]): inhibited
Inhibitory effect on STAT5b-SH2 binding (STAT5b(136–703) [5]): had no effect

Ac-GpYLVLDKW-NH2
Inhibitory effect on STAT3-SH2 binding (STAT3(136–705) [4]): had no effect
Inhibitory effect on STAT5b-SH2 binding (STAT5b(136–703) [5]): inhibited

DIG-C2-GpYLPQTV ({DIG-C2}-G[pY]LPQTV) [digoxygenin-labeled GpYLPQTV peptide with two carbon spacer]
Inhibition of binding between FITC-C6-GpYLPQTV and STAT3(136–705) (STAT3(136–705) [6]): inhibited

B1: Ac-GpYLVLDKW-NH2 (peptide)
peptide: Ac-G[pY]LVLDKW-NH2
SMILES: CC(=O)NCC(=O)N[C@@H](Cc1ccc(OP(=O)(O)O)cc1)C(=O)N[C@@H](CC(C)C)C(=O)N[C@H](C(=O)N[C@@H](CC(C)C)C(=O)N[C@@H](CC(=O)O)C(=O)N[C@@H](CCCCN)C(=O)N[C@@H](Cc1c[nH]c2ccccc12)C(N)=O)C(C)C
notes: the leading G is not the receptor's; also called non-labeled peptide for STAT5b
binding result (STAT5b(136–703) [7]): binds

B2: FITC-C6-GpYLVLDKW (peptide)
peptide: {FITC′-C6}-G[pY]LVLDKW
notes: the leading G is not the receptor's residue at that place; also called FITC-GpYLVLDKW; FITC-labeled GpYLVLDKW peptide; source: synthetic peptide (synthesized by Nippi Biomatrix Laboratory)
binding result (STAT5b(136–703) [7]): binds
